# Source: patent US20060069132A1, “Azolecarboxamide herbicides” (priority 2004, published 2006)
# Key:
# winter barley = test: Test C postemergence herbicide test; type: in vivo, Hordeum vulgare
# Procedure, shortened: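 Visual rating, 0 (no effect) to 100 (complete control), vs. controls at 12–14 d in greenhouse. Postemergence: 1–4-leaf plants, 2–18 cm. Paddy: flooded, barnyardgrass at 2-leaf stage.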
# blackgrass = test: Test C postemergence herbicide test; type: in vivo, Alopecurus myosuroides
# Procedure, shortened: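 Postemergence sprays applied to plants 2 to 18 cm tall (1- to 4-leaf stage); paddy species grown to 2-leaf stage under flooding. After 12 to 14 days in greenhouse, visual rating versus untreated controls on 0–100 scale (0 no effect, 100 complete control).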
# kochia = test: Test E pre-/postemergence herbicide test; type: in vivo, Kochia scoparia
# Procedure, shortened: (§1)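 Herbicidal effect scored visually, 0–100 scale, versus controls. Treatments: preemergence on planted seed; postemergence on 2–18 cm seedlings. Greenhouse, 12 to 14 days.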
# pitted morningglory = test: Test E pre-/postemergence herbicide test; type: in vivo, Ipomoea lacunosa
# Procedure, shortened: as §1
# purple nutsedge = test: Test E pre-/postemergence herbicide test; type: in vivo, Cyperus rotundus
# Procedure, shortened: as §1
# dallisgrass = test: Test E pre-/postemergence herbicide test; type: in vivo, Paspalum dilatatum
# Procedure, shortened: as §1
# broadleaf signalgrass = test: Test E pre-/postemergence herbicide test; type: in vivo, Brachiaria platyphylla
# Procedure, shortened: as §1
# tropical spiderwort = test: Test E pre-/postemergence herbicide test; type: in vivo, Commelina benghalensis
# Procedure, shortened: as §1
# field bindweed = test: Test E pre-/postemergence herbicide test; type: in vivo, Convolvulus arvensis
# Procedure, shortened: as §1
# Russian thistle = test: Test E pre-/postemergence herbicide test; type: in vivo, Salsola kali
# Description: Seeds of plant species selected from bipinnate beggarticks (Bidens bipinnata L.), hairy beggarticks (Bidens radiata Thuill.), bermudagrass (Cynodon dactylon (L.) Pers.), Surinam grass (Urochloa decumbens (Staph) R. D. Webster, previously named Brachiaria decumbens Stapf), large crabgrass (Digitaria sanguinalis (L.) Scop.), green foxtail (Setaria viridis (L.) P. Beauv.), goosegrass (Eleusine indica (L.) Gaertn.), johnsongrass (Sorghum halepense (L.) Pers.), kochia (Kochia scoparia (L.) Schrad.), pitted morningglory (Ipomoea lacunosa L.), purple nutsedge (Cyperus rotundus L.), common ragweed (Ambrosia elatior L.), mustard (Brassica nigra (L.) W. D. J. Koch), guineagrass (Panicum maximum Jacq.), dallisgrass (Paspalum dilatatum Poir.), barnyardgrass (Echinochloa crus-galli (L). P. Beauv.), southern sandbur (Cenchrus echinatus L.), common sowthistle (Sonchus oleraceous L.), prickly sida (Sida spinosa L.), Italian ryegrass (Lolium multiflorum Lam.), common purslane (Portulaca oleracea L.), broadleaf signalgrass (Brachiaria platyphylla (Griseb.) Nash), common groundsel (Senecio vulgaris L.), common chickweed (Stellaria media (L.) Vill/Cyr.), tropical spiderwort (Commelina benghalensis L.), annual bluegrass (Poa annua L.), downy bromegrass (Bromus tectorum L.), itchgrass (Rottboellia cochinchinensis (L.) L.f.), quackgrass (Elytrigia repens (L.) Nevski), Canada horseweed (Erigeron Canadensis L.), field bindweed (Convolvulus arvensis L.), spotted spurge (Euphorbia maculata L.), common mallow (Malva sylvestris (=s silvestris) L.), and Russian thistle (Salsola kali L. ssp. Ruthenica (Iljin) Soo) were planted and treated preemergence with test chemicals formulated in a non-phytotoxic solvent mixture which included a surfactant.
# At the same time, plants selected from these weed species were treated with postemergence applications of some of the test chemicals formulated in the same manner. Plants ranged in height from 2 to 18 cm (1- to 4-leaf stage) for postemergence treatments. Treated plants and controls were maintained in a greenhouse for 12 to 14 days, after which time all species were compared to controls and visually evaluated. Plant response ratings, summarized in Table E, are based on a scale of 0 to 100 where 0 is no effect and 100 is complete control. A dash (-) response means no test result.
# [1] = Postemergence, 500 g ai/ha, scale 0 to 100
# [2] = Postemergence, 250 g ai/ha, scale 0 to 100, 0 no effect, 100 complete control
# [3] = postemergence, 125 g ai/ha, scale 0 to 100
# [4] = postemergence, 62 g ai/ha, scale 0 to 100
# [5] = Preemergence, 62 g ai/ha, scale 0 to 100
# [6] = Preemergence, 125 g ai/ha, scale 0 (no effect) to 100 (complete control)
# [7] = Preemergence, 250 g ai/ha, scale 0 (no effect) to 100 (complete control)
# [8] = Preemergence, 500 g ai/ha, scale 0 (no effect) to 100 (complete control)
# [9] = Postemergence, 250 g ai/ha, scale 0 to 100
# [10] = Preemergence, 125 g ai/ha, scale 0 to 100
structure (smiles),measurement,setting,value
CCNC(=O)c1cccc(NC(=O)c2cc(C(C)(C)C)nn2CC)n1 [Compound 144],"Barley, Winter plant response rating",winter barley; [1],40
same,"Plant response rating, Barley, Winter","winter barley; Postemergence, 125 g ai/ha, scale 0 to 100, 0 no effect, 100 complete control",20
same,"Plant response rating, Barley, Winter",winter barley; [2],30
same,"Plant response rating, Barley, Winter","winter barley; postemergence, 62 g ai/ha, scale 0 to 100 (0 no effect, 100 complete control)",0
same,Blackgrass plant response rating,blackgrass; [1],40
same,"Plant response rating, Blackgrass",blackgrass; [2],40
same,"Plant response rating, Blackgrass",blackgrass; [3],30
same,"Plant response rating, Blackgrass",blackgrass; [4],30
same,"Plant response rating, Kochia",kochia; [5],0
same,"Plant response rating, Kochia",kochia; [6],60
same,"Plant response rating, Kochia",kochia; [7],90
same,"Plant response rating, Kochia",kochia; [8],90
same,"Plant response rating, Morningglory",pitted morningglory; [5],0
same,"Plant response rating, Morningglory",pitted morningglory; [6],20
same,"Plant response rating, Morningglory",pitted morningglory; [7],20
same,"Plant response rating, Morningglory",pitted morningglory; [8],100
same,"Plant response rating, Nutsedge, Purple",purple nutsedge; [5],0
same,"Plant response rating, Nutsedge, Purple",purple nutsedge; [6],30
same,"Plant response rating, Nutsedge, Purple",purple nutsedge; [7],30
same,"Plant response rating, Nutsedge, Purple",purple nutsedge; [8],50
same,"Plant response rating, Dallisgrass",dallisgrass; [5],0
same,"Plant response rating, Dallisgrass",dallisgrass; [6],30
same,"Plant response rating, Dallisgrass",dallisgrass; [7],60
same,"Plant response rating, Dallisgrass",dallisgrass; [8],80
same,"Plant response rating, Signalgrass",broadleaf signalgrass; [5],10
same,"Plant response rating, Signalgrass",broadleaf signalgrass; [6],20
same,"Plant response rating, Signalgrass",broadleaf signalgrass; [7],30
same,"Plant response rating, Signalgrass",broadleaf signalgrass; [8],50
same,"Plant response rating, Spiderwort",tropical spiderwort; [5],60
same,"Plant response rating, Spiderwort",tropical spiderwort; [6],60
same,"Plant response rating, Spiderwort",tropical spiderwort; [7],60
same,"Plant response rating, Spiderwort",tropical spiderwort; [8],100
same,"Plant response rating, Bindweed, Field",field bindweed; [5],0
same,"Plant response rating, Bindweed, Field",field bindweed; [7],50
same,"Plant response rating, Bindweed, Field",field bindweed; [8],80
"CCn1nc(C(C)(C)C)cc1C(=O)Nc1cc(C(=O)N(C)C)ccn1 [Compound 156, 2-[[[3-(1,1-dimethylethyl)-1-ethyl-1H-pyrazol-5-yl]carbonyl]amino]-N,N-dimethyl-4-pyridinecarboxamide]","Plant response rating, Kochia",kochia; [1],100
same,"Plant response rating, Kochia",kochia; [9],100
same,"Plant response rating, Kochia",kochia; [5],100
same,"Plant response rating, Kochia",kochia; [10],100
same,"Plant response rating, Kochia",kochia; [7],100
same,"Plant response rating, Kochia",kochia; [8],100
same,"Plant response rating, Kochia",kochia; [3],100
same,"Plant response rating, Morningglory",pitted morningglory; [1],90
same,"Plant response rating, Morningglory",pitted morningglory; [9],80
same,"Plant response rating, Morningglory",pitted morningglory; [5],30
same,"Plant response rating, Morningglory",pitted morningglory; [10],100
same,"Plant response rating, Morningglory",pitted morningglory; [7],100
same,"Plant response rating, Morningglory",pitted morningglory; [8],100
same,"Plant response rating, Morningglory",pitted morningglory; [3],65
same,"Plant response rating, Morningglory",pitted morningglory; [4],10
same,"Plant response rating, Nutsedge, Purple",purple nutsedge; [9],90
same,"Plant response rating, Nutsedge, Purple",purple nutsedge; [8],95
same,"Plant response rating, Nutsedge, Purple",purple nutsedge; [3],75
same,"Plant response rating, Dallisgrass",dallisgrass; [1],90
same,"Plant response rating, Dallisgrass",dallisgrass; [9],90
same,"Plant response rating, Dallisgrass",dallisgrass; [5],90
same,"Plant response rating, Dallisgrass",dallisgrass; [10],95
same,"Plant response rating, Dallisgrass",dallisgrass; [7],100
same,"Plant response rating, Dallisgrass",dallisgrass; [8],100
same,"Plant response rating, Dallisgrass",dallisgrass; [3],85
same,"Plant response rating, Dallisgrass",dallisgrass; [4],75
same,"Plant response rating, Signalgrass",broadleaf signalgrass; [1],98
same,"Plant response rating, Signalgrass",broadleaf signalgrass; [9],95
same,"Plant response rating, Signalgrass",broadleaf signalgrass; [5],85
same,"Plant response rating, Signalgrass",broadleaf signalgrass; [7],90
same,"Plant response rating, Signalgrass",broadleaf signalgrass; [8],95
same,"Plant response rating, Signalgrass",broadleaf signalgrass; [3],85
same,"Plant response rating, Signalgrass",broadleaf signalgrass; [4],40
same,"Plant response rating, Spiderwort",tropical spiderwort; [1],65
same,"Plant response rating, Spiderwort",tropical spiderwort; [9],50
same,"Plant response rating, Spiderwort",tropical spiderwort; [5],30
same,"Plant response rating, Spiderwort",tropical spiderwort; [10],50
same,"Plant response rating, Spiderwort",tropical spiderwort; [7],50
same,"Plant response rating, Spiderwort",tropical spiderwort; [8],80
same,"Plant response rating, Spiderwort",tropical spiderwort; [3],30
same,"Plant response rating, Spiderwort",tropical spiderwort; [4],20
same,"Plant response rating, Bindweed, Field",field bindweed; [1],100
same,"Plant response rating, Bindweed, Field",field bindweed; [9],80
same,"Plant response rating, Bindweed, Field",field bindweed; [5],60
same,"Plant response rating, Bindweed, Field",field bindweed; [10],90
same,"Plant response rating, Bindweed, Field",field bindweed; [7],100
same,"Plant response rating, Bindweed, Field",field bindweed; [8],100
same,"Plant response rating, Bindweed, Field",field bindweed; [3],65
same,"Plant response rating, Bindweed, Field",field bindweed; [4],65
same,"Plant response rating, Thistle",Russian thistle; [9],80
same,"Plant response rating, Thistle",Russian thistle; [5],80
same,"Plant response rating, Thistle",Russian thistle; [10],100
same,"Plant response rating, Thistle",Russian thistle; [8],100
